According to ChEMBL document CHEMBL1165953, “Synthesis and biological evaluation of 4(5)-(6-methylpyridin-2-yl)imidazoles and -pyrazoles as transforming growth factor-beta type 1 receptor kinase inhibitors” (Bioorg Med Chem, 2010):
≈ marks a conversion by molar mass, not a printed value.

Experiments:
[1] = Metabolic stability assessed as 3-((4-(2-hydroxyquinolin-6-yl)-5-(6-methylpyridin-2-yl)-1H-imidazol-2-yl)methyl)benzamide or 3-((4-(3-hydroxyquinolin-6-yl)-5-(6-methylpyridin-2-yl)-1H-imidazol-2-yl)methyl)benzamide levels at 120 uM by HPLC analysis in presence human recombinant CYP3A4; assay type: ADME; conditions: recombinant enzyme
[2] = Aqueous solubility in buffer solution at pH 1.2; assay type: physicochemical
[3] = target: Vascular endothelial growth factor receptor 2 (Homo sapiens, UniProt P35968); assay: Inhibition of VEGFR2
[4] = target: Vascular endothelial growth factor receptor 1 (Homo sapiens, UniProt P17948); assay: Inhibition of VEGFR1
[5] = target: T1, TGF-beta receptor type-1 (Homo sapiens, UniProt P36897)
T1 sequence (P36897 whole entry): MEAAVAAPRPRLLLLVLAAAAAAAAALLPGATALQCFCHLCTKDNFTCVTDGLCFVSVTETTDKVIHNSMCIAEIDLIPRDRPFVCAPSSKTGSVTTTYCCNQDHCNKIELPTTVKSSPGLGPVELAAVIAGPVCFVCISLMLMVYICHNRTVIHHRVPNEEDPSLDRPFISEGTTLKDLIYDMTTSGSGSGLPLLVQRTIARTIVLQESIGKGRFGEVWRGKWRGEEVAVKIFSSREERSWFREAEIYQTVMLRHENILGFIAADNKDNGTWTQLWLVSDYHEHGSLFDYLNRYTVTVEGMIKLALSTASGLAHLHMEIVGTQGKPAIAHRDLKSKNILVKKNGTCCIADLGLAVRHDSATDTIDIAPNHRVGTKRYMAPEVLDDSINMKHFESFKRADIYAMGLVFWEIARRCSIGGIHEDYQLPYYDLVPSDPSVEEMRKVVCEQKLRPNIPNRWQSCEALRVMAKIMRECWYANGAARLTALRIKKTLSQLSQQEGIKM
Description: Inhibition of human recombinant GST-fused ALK5 expressed in Sf9 cells

[6] = target: Vascular endothelial growth factor receptor 3 (Homo sapiens, UniProt P35916); assay: Inhibition of VEGFR3
[7] = target: Mitogen-activated protein kinase 14 (Homo sapiens, UniProt Q16539)
[8] = target: Platelet-derived growth factor receptor alpha (Homo sapiens, UniProt P16234); assay: Inhibition of PDGFRalpha
[9] = Metabolic stability assessed as 3-((4-(2-hydroxyquinolin-6-yl)-5-(6-methylpyridin-2-yl)-1H-imidazol-2-yl)methyl)benzamide or 3-((4-(3-hydroxyquinolin-6-yl)-5-(6-methylpyridin-2-yl)-1H-imidazol-2-yl)methyl)benzamide levels at 120 uM by HPLC analysis in presence human recombinant CYP2C8; assay type: ADME; conditions: recombinant enzyme
[10] = target: T2, Serine/threonine-protein kinase D1 (Homo sapiens, UniProt Q15139); assay: Inhibition of PKCmu
T2 sequence (Q15139 whole entry): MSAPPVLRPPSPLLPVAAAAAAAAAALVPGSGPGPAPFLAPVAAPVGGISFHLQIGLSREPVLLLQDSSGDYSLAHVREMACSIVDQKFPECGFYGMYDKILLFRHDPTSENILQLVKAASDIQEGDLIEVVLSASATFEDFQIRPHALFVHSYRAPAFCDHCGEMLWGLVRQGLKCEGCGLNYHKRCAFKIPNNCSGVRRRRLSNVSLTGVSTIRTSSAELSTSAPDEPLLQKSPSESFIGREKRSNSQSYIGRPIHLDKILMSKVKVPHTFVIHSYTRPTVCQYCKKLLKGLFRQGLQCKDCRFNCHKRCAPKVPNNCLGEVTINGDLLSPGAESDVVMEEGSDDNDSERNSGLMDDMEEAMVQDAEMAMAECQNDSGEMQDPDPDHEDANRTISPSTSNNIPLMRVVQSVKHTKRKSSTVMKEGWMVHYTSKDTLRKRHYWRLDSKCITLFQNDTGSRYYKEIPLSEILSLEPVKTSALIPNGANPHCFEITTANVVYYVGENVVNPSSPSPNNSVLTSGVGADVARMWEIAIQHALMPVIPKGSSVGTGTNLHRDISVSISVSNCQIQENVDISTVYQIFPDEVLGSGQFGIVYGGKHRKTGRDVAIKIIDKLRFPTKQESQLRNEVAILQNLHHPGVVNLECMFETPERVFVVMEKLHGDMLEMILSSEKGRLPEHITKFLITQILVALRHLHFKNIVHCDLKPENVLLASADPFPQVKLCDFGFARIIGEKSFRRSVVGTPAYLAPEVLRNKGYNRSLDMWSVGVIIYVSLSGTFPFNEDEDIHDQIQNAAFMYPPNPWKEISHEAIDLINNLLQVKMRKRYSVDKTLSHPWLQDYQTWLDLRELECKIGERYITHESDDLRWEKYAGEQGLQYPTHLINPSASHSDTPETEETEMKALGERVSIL

[11] = Metabolic stability assessed as 3-((4-(2-hydroxyquinolin-6-yl)-5-(6-methylpyridin-2-yl)-1H-imidazol-2-yl)methyl)benzamide or 3-((4-(3-hydroxyquinolin-6-yl)-5-(6-methylpyridin-2-yl)-1H-imidazol-2-yl)methyl)benzamide levels at 120 uM by HPLC analysis in presence human recombinant CYP2C19; assay type: ADME; conditions: recombinant enzyme
[12] = Metabolic stability assessed as 3-((4-(2-hydroxyquinoxalin- 6-yl)-5-(6-methylpyridin-2-yl)-1H-imidazol-2-yl)methyl)benzamide or 3-((4-(3-hydroxyquinoxalin-6-yl)-5-(6-methylpyridin-2-yl)- 1H-imidazol-2-yl)methyl)benzamide) levels at 120 uM by HPLC analysis in presence human recombinant CYP2C8; assay type: ADME; conditions: recombinant enzyme
[13] = Metabolic stability assessed as 3-((4-(2-hydroxyquinoxalin- 6-yl)-5-(6-methylpyridin-2-yl)-1H-imidazol-2-yl)methyl)benzamide or 3-((4-(3-hydroxyquinoxalin-6-yl)-5-(6-methylpyridin-2-yl)- 1H-imidazol-2-yl)methyl)benzamide) levels at 120 uM by HPLC analysis in presence human recombinant CYP3A4; assay type: ADME; conditions: recombinant enzyme
[14] = Metabolic stability assessed as 3-((4-(2-hydroxyquinoxalin- 6-yl)-5-(6-methylpyridin-2-yl)-1H-imidazol-2-yl)methyl)benzamide or 3-((4-(3-hydroxyquinoxalin-6-yl)-5-(6-methylpyridin-2-yl)- 1H-imidazol-2-yl)methyl)benzamide) levels at 120 uM by HPLC analysis in presence human recombinant CYP2C19; assay type: ADME; conditions: recombinant enzyme
[15] = Metabolic stability assessed as 3-((4-(2-hydroxyquinoxalin- 6-yl)-5-(6-methylpyridin-2-yl)-1H-imidazol-2-yl)methyl)benzamide or 3-((4-(3-hydroxyquinoxalin-6-yl)-5-(6-methylpyridin-2-yl)- 1H-imidazol-2-yl)methyl)benzamide) levels at 120 uM by HPLC analysis in presence human recombinant CYP2D6; assay type: ADME; conditions: recombinant enzyme

Sequence of Platelet-derived growth factor receptor alpha (P16234 whole entry): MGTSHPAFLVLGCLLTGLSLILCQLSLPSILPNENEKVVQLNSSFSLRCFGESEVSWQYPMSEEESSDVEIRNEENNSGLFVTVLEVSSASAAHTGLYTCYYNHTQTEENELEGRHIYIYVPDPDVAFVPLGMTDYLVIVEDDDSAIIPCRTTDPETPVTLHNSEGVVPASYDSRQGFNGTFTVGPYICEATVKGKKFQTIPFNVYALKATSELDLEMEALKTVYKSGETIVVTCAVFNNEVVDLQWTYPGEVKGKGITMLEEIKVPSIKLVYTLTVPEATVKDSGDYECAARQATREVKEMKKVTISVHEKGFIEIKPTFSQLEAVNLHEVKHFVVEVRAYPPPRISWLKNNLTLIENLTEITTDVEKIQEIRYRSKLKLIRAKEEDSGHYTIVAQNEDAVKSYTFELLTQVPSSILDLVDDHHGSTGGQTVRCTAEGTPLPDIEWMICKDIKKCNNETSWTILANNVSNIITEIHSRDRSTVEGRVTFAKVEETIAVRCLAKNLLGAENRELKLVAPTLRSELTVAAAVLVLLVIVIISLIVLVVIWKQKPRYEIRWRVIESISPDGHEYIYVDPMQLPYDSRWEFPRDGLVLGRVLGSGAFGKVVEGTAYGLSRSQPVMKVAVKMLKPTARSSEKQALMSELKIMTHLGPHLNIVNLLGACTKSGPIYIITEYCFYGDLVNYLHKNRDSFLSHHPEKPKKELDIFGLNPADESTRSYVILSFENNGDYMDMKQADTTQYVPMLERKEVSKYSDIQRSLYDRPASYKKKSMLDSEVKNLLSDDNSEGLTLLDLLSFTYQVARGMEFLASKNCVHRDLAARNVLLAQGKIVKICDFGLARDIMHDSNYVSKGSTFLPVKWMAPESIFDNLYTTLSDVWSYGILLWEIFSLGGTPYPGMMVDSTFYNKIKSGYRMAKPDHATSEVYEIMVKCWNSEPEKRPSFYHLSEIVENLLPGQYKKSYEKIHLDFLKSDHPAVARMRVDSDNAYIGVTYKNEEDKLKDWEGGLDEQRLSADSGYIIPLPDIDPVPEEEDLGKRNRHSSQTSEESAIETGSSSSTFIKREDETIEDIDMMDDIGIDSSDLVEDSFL
Sequence of Vascular endothelial growth factor receptor 1 (P17948 whole entry): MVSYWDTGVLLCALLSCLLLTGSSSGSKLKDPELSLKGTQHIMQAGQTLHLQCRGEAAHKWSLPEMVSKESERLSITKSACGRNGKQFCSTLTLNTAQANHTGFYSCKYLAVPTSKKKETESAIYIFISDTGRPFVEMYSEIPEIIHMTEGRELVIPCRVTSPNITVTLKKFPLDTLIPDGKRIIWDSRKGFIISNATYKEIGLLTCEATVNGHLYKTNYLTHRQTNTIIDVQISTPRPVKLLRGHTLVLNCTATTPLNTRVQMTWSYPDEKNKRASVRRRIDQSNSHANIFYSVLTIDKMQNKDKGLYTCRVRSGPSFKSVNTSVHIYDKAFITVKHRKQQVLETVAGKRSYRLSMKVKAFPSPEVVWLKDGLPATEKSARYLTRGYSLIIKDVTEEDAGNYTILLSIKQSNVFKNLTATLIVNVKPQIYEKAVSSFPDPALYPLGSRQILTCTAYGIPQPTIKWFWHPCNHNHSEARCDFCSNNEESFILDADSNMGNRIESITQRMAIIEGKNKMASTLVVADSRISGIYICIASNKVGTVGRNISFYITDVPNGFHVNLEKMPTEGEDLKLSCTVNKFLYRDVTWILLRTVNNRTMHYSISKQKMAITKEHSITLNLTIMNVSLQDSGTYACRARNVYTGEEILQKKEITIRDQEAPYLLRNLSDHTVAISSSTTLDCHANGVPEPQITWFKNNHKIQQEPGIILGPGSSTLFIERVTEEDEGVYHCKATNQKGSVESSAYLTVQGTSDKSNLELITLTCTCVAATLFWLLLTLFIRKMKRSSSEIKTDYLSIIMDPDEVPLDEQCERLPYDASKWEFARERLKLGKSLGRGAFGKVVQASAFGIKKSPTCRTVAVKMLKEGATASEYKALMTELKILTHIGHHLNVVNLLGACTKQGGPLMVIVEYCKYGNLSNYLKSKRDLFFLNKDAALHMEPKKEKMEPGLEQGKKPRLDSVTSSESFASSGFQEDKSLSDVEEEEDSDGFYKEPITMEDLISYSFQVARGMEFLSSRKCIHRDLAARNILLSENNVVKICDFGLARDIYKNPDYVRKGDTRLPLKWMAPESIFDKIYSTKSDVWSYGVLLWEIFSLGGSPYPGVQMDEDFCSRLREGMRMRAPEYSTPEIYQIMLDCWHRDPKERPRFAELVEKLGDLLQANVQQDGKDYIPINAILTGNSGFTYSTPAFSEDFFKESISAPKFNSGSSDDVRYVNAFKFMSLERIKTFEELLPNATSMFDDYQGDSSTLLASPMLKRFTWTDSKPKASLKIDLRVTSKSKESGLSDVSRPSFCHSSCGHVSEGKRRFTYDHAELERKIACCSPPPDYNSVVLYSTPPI
Sequence of Vascular endothelial growth factor receptor 2 (P35968 whole entry): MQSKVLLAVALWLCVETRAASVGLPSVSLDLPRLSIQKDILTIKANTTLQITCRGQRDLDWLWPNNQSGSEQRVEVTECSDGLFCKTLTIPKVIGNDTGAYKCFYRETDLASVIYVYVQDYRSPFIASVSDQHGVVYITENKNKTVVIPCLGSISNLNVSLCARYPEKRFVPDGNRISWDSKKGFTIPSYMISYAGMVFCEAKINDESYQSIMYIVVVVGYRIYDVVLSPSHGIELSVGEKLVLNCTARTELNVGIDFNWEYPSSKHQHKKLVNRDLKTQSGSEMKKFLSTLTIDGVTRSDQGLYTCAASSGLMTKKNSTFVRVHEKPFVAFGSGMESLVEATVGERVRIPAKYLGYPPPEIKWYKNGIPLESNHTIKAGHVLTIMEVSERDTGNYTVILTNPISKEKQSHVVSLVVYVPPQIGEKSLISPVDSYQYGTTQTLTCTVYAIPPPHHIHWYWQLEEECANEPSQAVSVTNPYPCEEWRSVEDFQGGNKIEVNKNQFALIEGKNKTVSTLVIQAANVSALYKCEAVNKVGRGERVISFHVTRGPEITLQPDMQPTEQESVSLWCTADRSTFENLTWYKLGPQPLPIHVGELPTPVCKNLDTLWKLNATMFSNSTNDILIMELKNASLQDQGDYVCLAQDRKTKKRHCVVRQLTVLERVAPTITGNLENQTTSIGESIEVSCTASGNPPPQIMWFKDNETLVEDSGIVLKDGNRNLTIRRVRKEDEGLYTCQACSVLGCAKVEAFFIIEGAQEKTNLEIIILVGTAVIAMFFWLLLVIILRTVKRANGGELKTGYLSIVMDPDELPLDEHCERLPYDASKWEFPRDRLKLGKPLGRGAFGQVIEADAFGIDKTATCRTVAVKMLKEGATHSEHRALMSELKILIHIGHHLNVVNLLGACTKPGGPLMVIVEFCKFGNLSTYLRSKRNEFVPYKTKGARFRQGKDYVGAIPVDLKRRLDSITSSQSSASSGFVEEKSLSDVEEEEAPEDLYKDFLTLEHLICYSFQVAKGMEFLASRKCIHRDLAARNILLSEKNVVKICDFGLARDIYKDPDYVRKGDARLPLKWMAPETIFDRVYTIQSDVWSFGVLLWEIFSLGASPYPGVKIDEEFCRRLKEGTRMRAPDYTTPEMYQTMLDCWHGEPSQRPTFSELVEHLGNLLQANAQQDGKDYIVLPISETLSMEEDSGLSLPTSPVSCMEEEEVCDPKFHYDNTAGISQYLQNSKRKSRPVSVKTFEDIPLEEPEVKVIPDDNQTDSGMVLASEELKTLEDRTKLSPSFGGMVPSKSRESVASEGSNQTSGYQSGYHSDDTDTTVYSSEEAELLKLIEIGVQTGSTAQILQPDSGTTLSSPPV
Sequence of Vascular endothelial growth factor receptor 3 (P35916 whole entry): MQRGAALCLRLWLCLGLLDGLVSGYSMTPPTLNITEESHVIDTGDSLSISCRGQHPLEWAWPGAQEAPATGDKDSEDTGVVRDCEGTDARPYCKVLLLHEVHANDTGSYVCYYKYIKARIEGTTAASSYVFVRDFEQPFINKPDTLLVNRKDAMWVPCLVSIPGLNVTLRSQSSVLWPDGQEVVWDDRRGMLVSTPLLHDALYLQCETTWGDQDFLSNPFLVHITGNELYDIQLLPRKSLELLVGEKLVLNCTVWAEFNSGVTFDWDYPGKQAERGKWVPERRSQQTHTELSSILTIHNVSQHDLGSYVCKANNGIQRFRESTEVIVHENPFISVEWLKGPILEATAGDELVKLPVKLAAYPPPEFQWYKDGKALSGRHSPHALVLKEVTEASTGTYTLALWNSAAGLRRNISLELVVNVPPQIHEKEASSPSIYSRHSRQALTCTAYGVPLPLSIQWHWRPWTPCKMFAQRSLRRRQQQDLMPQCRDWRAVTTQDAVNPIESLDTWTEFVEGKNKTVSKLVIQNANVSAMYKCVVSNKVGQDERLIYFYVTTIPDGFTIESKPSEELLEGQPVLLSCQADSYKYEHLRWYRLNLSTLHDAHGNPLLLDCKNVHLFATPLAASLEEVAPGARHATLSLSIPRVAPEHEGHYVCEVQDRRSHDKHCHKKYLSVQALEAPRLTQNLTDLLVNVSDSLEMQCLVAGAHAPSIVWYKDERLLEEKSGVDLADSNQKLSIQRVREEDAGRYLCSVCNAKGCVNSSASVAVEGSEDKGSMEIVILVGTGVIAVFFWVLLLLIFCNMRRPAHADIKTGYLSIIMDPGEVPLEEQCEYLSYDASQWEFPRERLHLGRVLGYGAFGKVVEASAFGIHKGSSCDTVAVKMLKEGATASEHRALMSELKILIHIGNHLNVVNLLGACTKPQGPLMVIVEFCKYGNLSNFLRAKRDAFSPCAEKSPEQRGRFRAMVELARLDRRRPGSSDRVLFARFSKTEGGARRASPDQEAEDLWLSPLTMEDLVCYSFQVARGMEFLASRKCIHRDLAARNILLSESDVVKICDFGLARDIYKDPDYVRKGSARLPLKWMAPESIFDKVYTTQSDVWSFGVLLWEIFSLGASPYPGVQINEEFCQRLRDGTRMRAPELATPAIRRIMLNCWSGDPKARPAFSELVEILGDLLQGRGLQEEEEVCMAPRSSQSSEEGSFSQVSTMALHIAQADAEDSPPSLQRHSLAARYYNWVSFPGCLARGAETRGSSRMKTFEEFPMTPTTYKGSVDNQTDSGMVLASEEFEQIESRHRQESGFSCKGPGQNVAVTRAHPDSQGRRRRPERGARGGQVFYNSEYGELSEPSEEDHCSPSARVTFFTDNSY

SMILES	Stability [1]	solubility [2]	IC50 [3]	IC50 [4]	IC50 [5]	IC50 [6]	IC50 [7]	IC50 [8]	Stability [9]	IC50 [10]	Stability [11]	Stability [12]	Stability [13]	Stability [14]	Stability [15]
Cc1cccc(-c2nc(Cc3cccc(C(N)=O)c3)[nH]c2-c2ccc3ncccc3c2)n1	10.6 peak area	14.3 mg/mL (≈ 34.1 mM)	2200 nM	2100 nM	34 nM	940 nM	540 nM	3000 nM	1.99 peak area	650 nM	11.3 peak area				
Cc1cccc(-c2[nH]c(Cc3cccc(C#N)c3)nc2-c2ccc3ncccc3c2)n1		7.1 mg/mL (≈ 17.7 mM)													
Cc1cccc(-c2[nH]c(Cc3cccc(C(N)=O)c3)nc2-c2ccc3nccnc3c2)n1												33.4 peak area	17 peak area	12.4 peak area	15.4 peak area
